Results from patent US11161907B2, “Car-expressing cells against multiple tumor antigens and uses thereof” (Novartis AG, priority 2015, dated 2021).
“Also recorded” adds a separate entry of the source. Read-outs that look alike come from different tables or passages of the source.

Columns and labels:
[1] = test system: huCART19 cells co-cultured with Nalm-6; test: 4 day co-culture proliferation assay of CARTs with RAD001; format: cell-based, human
Method: To evaluate the functionality of CARTs, the T cells are thawed and counted, and viability is assessed by Cellometer. The number of CAR-positive cells in each culture is normalized using non-transduced T cells (UTD). The impact of RAD001 on CARTs was tested in titrations with RAD001, starting at 50 nM. The target cell line used in all co-culture experiments is Nalm-6, a human pre-B cell acute lymphoblastic leukemia (ALL) cell line expressing CD19 and transduced to express luciferase.
For measuring the proliferation of CARTs, T cells are cultured with target cells at a ratio of 1:1. The assay is run for 4 days, when cells are stained for CD3, CD4, CD8 and CAR expression. The number of T cells is assessed by flow cytometry using counting beads as reference.

[2] = RAD001 pharmacokinetic analysis in blood of tumor bearing mice; format: in vivo, NSG mice; details: for concentration at 24 h: NSG, mouse, whole blood
Method: (§1) A concentrated micro-emulsion of 50 mg equal to 1 mg RAD001 was formulated and then resuspended in D5W (dextrose 5% in water) at the time of dosing. Mice were orally dosed daily (via oral gavage) with 200 μl of the desired doses of RAD001. PK analysis: Mice were dosed daily with RAD001 starting 7 days post tumor implantation. Dosing groups were as follows: 0.3 mg/kg, 1 mg/kg, 3 mg/kg, and 10 mg/kg. Mice were bled on days 0 and 14 following the first and last dose of RAD001, at the following time points for PK analysis: 15 minutes, 30 minutes, 1 hour, 2 hours, 4 hours, 8 hours, 12 hours, and 24 hours.

[3] = test system: humanized CD19 CAR T cells; test: In vivo proliferation of huCAR19 CAR T cells with and without RAD001 (FACS); set-up: species or system NSG mice
Method: Mice were administered 5×10^6 CAR T cells 7 days after tumor implantation. Cells were partially thawed in a 37 degree Celsius water bath and then completely thawed by the addition of 1 ml of cold sterile PBS to the tube containing the cells. The thawed cells were transferred to a 15 ml falcon tube and adjusted to a final volume of 10 mls with PBS. The cells were washed twice at 1000 rpm for 10 minutes each time and then counted on a hemocytometer. T cells were then resuspended at a concentration of 50×10^6 CAR T cells per ml of cold PBS and kept on ice until the mice were dosed. The mice were injected intravenously via the tail vein with 100 μl of the CAR T cells for a dose of 5×10^6 CAR T cells per mouse. Eight mice per group were treated either with 100 μl of PBS alone (PBS), or humanized CD19 CAR T cells.
as §1, with “Mice were bled on days 0 and 14 following the first and last dose of RAD001, at the following time points for PK analysis: 15 minutes, 30 minutes, 1 hour, 2 hours, 4 hours, 8 hours, 12 hours, and 24 hours.” left out
Based on these doses, huCAR19 CAR T cells were dosed with and without RAD001 to determine the proliferative ability of these cells. […] Mice were monitored via FACS for T cell expansion.

[4] = test system: NALM6-luc tumors; test: NALM6-luc tumor growth with daily oral RAD001; format: in vivo, NSG mice; details: daily oral dosing of RAD001 alone, 0.3-10 mg/kg
Method: NALM6-luc cells were grown and expanded in vitro in RPMI supplemented with 10% heat inactivated fetal bovine serum. The cells were then transferred to a 15 ml conical tube and washed twice with cold sterile PBS. NALM6-luc cells were then counted and resuspended at a concentration of 10×10^6 cells per milliliter of PBS. The cells were placed on ice and immediately (within one hour) implanted in the mice. NALM6-luc cells were injected intravenously via the tail vein in a 100 μl volume, for a total of 1×10^6 cells per mouse.
as §1

[5] = target: FRA (Homo sapiens, UniProt P15328); details: cited from earlier work
[6] = test system: subcutaneous SKOV3 tumors; test: Established subcutaneous SKOV3 xenograft model of ovarian cancer; format: in vivo, NSG mice; details: 3 weeks following adoptive transfer, versus UNT and CD19-27z groups
Excerpt: All animals were obtained from the Stem Cell and Xenograft Core of the Abramson Cancer Center, University of Pennsylvania. Six to 12-week-old NOD/SCID/γ-chain−/− (NSG) mice were bred, treated and maintained under pathogen-free conditions in-house under University of Pennsylvania IACUC approved protocols. For an established ovarian cancer model, 6 to 12-week-old female NSG mice were inoculated s.c. with 3×10^6 SKOV3 fLuc+ cells on the flank on day 0. After tumors become palpable at about 1 month, human primary T cell (CD4+ and CD8+ T cells used were mixed at 1:1 ratio) were activated, and transduced as described above. After 2 weeks T cell expansion, when the tumor burden was ˜200-300 mm^3, mice were treated with T cells. The route, dose, and timing of T-cell injections is indicated in the individual figure legends. Tumor dimensions were measured with calipers, and tumor volumes calculated using the formula V=½(length×width^2), where length is greatest longitudinal diameter and width is greatest transverse diameter. […] Photon emission from fLuc+ cells was quantified using the “Living Image” software (Xenogen) for all in vivo experiments. […]
Tumor growth was also monitored by Bioluminescent imaging (BLI). BLI was done using Xenogen IVIS imaging system and the photons emitted from fLuc-expressing cells within the animal body were quantified using Living Image software (Xenogen). […]

FRA, sequence (P15328 25-234): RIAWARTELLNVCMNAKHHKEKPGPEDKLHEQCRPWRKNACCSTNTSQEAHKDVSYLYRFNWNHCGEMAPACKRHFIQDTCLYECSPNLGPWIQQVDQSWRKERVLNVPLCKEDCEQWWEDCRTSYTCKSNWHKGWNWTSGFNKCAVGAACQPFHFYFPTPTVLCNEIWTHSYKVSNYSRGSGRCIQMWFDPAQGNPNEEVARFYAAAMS

Molecule: CO[C@H]1C[C@@H]2CC[C@@H](C)[C@@](O)(O2)C(=O)C(=O)N2CCCC[C@H]2C(=O)O[C@H]([C@H](C)C[C@@H]2CC[C@@H](OCCO)[C@H](OC)C2)CC(=O)[C@H](C)/C=C(\C)[C@@H](O)[C@@H](OC)C(=O)[C@H](C)C[C@H](C)/C=C/C=C/C=C/1C [RAD001, (1R,9S,12S,15R,16E,18R,19R,21R,23S,24E,26E,28E,30S,32S,35R)-1,18-dihydroxy-12-{(1R)-2-[(1S,3R,4R)-4-(2-hydroxyethoxy)-3-methoxycyclohexyl]-1-methylethyl}-19,30-dimethoxy-15,17,21,23,29,35-hexamethyl-11,36-dioxa-4-aza-tricyclo[30.3.1.04,9]hexatriaconta-16,24,26,28-tetraene-2,3,10,14,20-pentaone]
- proliferation of huCART19 cells ([1]; 0.0032 and 0.016 nM RAD001): higher than observed without the addition of RAD001
- RAD001 concentration at which huCART19 cells expanded ([1]; 4 day co-culture with Nalm-6, 1:1): less than 0.016 nM
- concentration at 24 h ([2]; oral, 0.3 mg/kg, 24 hours after the final dose, read-out: concentration of RAD001): > 10 nM
- concentration at 24 h ([2]; day 0 PK, 24 hours after dosing, 0.3 mg/kg oral, read-out: RAD001 concentration in the blood): > 10 nM
- RAD001 concentration in the blood ([2]; day 14 PK, 24 hours after dosing, 0.3 mg/kg oral): above 10 nm
- stability in the blood ([2]; tumor bearing mice): fairly stable
- CAR T cell proliferation in vivo ([3]; 0.003 mg/kg RAD001 daily): enhancement in CAR T cell proliferation
- proliferation of the CAR T cells in vivo ([3]; lowest doses of RAD001, daily oral): enhanced proliferation
- impact on the growth of NALM6-luc tumors [4]: did not have an impact

B1: C4: fully human anti-FRA scFv/Fab fragment, scFv SEQ ID NO: 98 (protein)
scFv: QLVESGGGLVQPGRSLRLSCTTSGFTFGDYAMIWARQAPGKGLEWVSSISSSSSYIYYADSVKGRFTISRDNAKNSLYLQMNSLRAEDTAVYYCARERYDFWSGMDVWGKGTTVTVSSGGGGSGGGGSGGSAQSALTQPASVSGSPGQSITISCTGTSSDVGSYNLVSWYQQHPGKAPKLMIYEGSKRPSGVSNRFSGSKSGNAASLTISGLQAEDEADYYCQSYDSSLSVVFGGGTKLTVLG
- binding affinity relative to murine MOv19 [5]: approximately five-fold less; also recorded: approximately five-fold weaker
- persistence of transferred T-cells in the peripheral blood [6]: higher numbers of CD4+ and CD8+ T cells
